Results published in ChEMBL document CHEMBL5465560, “Selectivity Literature for EUbOPEN Chemogenomic Library” (2024).

How the values were obtained:
[1] = target: T1, Atypical kinase COQ8B, mitochondrial (Homo sapiens) (UniProt Q96D53); test: Selectivity interaction (KinomeScan (DiscoverX)) EUB0000045b ADCK4
T1 sequence (whole entry): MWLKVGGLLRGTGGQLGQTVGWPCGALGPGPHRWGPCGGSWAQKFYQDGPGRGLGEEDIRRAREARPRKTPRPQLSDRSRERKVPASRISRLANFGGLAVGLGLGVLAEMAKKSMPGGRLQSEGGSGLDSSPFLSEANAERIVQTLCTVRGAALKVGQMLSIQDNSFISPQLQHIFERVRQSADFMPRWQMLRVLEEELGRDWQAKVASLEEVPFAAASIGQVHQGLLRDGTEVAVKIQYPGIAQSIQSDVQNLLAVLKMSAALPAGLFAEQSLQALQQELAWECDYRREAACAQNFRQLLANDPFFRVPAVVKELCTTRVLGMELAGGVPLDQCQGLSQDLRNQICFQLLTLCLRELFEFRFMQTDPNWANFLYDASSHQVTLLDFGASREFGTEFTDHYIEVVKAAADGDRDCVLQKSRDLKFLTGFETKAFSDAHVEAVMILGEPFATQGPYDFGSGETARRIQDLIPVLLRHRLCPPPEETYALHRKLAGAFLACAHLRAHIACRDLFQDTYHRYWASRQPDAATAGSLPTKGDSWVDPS

[2] = target: RAC-gamma serine/threonine-protein kinase (Homo sapiens, UniProt Q9Y243); test: Selectivity interaction (KinomeScan (DiscoverX)) EUB0001049a AKT3; conditions: at 1 µM
[3] = target: Serine/threonine-protein kinase MRCK alpha (Homo sapiens) (UniProt Q5VT25); test: Selectivity interaction (KinomeScan (DiscoverX)) EUB0001049a CDC42BPA; conditions: at 1 µM
[4] = target: Angiopoietin-1 receptor (Homo sapiens) (UniProt Q02763); test: Selectivity interaction (ProQinase) EUB0000171b TEK; conditions: at 1 µM
[5] = target: Mitogen-activated protein kinase kinase kinase kinase 5 (Homo sapiens) (UniProt Q9Y4K4); test: Selectivity interaction (SelectScreen profiling (Invitrogen)) EUB0000607a MAP4K5; conditions: at 2 µM
[6] = target: T2, Serine/threonine-protein kinase Nek5 (Homo sapiens) (UniProt Q6P3R8); test: Selectivity interaction (KinomeScan (DiscoverX)) EUB0000607a NEK5; conditions: at 10 µM
T2 sequence (whole entry): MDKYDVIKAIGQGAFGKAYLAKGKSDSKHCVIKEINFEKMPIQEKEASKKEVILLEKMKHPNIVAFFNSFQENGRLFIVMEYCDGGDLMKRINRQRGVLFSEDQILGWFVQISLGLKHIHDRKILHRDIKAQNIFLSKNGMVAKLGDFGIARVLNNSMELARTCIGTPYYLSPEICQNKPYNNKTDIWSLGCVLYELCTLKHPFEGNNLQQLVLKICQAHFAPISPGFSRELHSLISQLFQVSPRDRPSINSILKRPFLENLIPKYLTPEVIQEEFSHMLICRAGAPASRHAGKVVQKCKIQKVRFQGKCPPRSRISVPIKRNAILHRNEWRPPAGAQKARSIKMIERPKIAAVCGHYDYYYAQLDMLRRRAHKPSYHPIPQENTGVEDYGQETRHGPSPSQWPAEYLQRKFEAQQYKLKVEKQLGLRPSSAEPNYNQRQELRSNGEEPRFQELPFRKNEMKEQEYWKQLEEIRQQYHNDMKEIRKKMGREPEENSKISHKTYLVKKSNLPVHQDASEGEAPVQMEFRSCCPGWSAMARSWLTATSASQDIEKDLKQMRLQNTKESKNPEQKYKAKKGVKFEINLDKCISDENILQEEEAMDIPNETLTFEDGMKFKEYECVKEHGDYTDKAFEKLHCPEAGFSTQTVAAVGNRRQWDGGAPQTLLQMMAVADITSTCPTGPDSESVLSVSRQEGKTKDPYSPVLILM

[7] = target: Mitogen-activated protein kinase kinase kinase 10 (Homo sapiens) (UniProt Q02779); test: Selectivity interaction (Kinase panel (Invitrogen)) EUB0000639a MAP3K10; conditions: at 200 nM
[8] = target: T3, Serine/threonine-protein kinase Nek9 (Homo sapiens) (UniProt Q8TD19); test: Selectivity interaction (KinomeScan (DiscoverX)) EUB0000655a NEK9; conditions: at 10 µM
T3 sequence (whole entry): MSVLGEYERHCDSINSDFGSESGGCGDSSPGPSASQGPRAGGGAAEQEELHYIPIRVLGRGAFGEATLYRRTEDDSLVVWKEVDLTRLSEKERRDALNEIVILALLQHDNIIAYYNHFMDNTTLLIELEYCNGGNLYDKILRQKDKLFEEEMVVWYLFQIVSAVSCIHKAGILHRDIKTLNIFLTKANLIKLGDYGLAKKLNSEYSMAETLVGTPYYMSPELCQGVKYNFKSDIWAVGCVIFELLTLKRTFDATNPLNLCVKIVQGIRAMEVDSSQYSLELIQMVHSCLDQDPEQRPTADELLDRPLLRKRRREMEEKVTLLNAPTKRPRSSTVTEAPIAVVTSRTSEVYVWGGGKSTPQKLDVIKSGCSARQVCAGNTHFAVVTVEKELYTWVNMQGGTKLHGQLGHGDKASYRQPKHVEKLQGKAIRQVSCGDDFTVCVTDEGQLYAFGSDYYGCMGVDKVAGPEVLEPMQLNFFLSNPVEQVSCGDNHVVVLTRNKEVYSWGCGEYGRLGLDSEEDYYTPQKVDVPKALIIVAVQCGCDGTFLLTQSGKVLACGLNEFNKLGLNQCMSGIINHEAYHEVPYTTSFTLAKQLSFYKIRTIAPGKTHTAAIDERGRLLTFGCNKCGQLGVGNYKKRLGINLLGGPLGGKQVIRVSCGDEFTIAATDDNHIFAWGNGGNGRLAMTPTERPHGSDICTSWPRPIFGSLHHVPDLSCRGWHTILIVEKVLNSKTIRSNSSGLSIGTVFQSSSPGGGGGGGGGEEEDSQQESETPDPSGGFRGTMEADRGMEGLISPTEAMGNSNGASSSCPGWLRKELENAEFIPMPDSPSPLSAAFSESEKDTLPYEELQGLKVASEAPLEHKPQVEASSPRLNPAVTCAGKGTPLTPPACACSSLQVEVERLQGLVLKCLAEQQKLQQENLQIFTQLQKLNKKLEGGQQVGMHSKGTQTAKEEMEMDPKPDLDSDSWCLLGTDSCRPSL

RAC-gamma serine/threonine-protein kinase, sequence (Q9Y243 whole entry): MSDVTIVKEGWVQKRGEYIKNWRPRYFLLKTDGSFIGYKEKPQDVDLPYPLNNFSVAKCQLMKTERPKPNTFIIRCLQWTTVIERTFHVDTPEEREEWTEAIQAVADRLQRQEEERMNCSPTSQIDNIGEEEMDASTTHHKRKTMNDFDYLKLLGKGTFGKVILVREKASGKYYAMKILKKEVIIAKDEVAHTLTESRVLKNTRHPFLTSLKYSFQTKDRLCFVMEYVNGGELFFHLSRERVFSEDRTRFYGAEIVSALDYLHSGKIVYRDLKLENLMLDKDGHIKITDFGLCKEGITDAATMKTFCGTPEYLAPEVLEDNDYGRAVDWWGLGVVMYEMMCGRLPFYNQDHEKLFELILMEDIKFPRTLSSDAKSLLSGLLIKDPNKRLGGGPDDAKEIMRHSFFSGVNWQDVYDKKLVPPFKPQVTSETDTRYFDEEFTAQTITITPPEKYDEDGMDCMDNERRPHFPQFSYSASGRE
Mitogen-activated protein kinase kinase kinase 10 (Homo sapiens), sequence (Q02779 whole entry, looked up): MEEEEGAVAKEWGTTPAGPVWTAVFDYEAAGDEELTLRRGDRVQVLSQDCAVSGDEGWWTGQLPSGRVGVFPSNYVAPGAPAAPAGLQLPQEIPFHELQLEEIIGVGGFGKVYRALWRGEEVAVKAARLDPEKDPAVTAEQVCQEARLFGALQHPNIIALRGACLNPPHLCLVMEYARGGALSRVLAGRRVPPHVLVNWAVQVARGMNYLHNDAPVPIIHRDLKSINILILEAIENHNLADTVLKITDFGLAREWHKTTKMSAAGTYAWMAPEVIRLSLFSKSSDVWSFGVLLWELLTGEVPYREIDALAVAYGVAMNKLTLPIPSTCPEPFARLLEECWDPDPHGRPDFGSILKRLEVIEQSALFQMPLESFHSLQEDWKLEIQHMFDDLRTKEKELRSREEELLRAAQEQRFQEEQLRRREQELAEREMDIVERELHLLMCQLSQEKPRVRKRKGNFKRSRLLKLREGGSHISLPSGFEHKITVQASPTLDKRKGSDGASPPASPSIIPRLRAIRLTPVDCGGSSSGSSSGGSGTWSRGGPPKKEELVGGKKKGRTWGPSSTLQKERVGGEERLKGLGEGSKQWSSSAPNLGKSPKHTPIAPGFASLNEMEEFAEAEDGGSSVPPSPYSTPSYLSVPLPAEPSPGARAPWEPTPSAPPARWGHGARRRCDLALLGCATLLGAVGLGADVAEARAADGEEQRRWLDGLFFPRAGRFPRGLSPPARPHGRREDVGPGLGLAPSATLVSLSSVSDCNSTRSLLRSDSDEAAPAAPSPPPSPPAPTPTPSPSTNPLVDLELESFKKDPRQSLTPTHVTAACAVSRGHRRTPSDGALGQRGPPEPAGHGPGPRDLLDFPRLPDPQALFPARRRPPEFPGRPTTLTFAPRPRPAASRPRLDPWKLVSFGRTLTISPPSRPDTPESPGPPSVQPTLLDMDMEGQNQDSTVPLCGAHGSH
Serine/threonine-protein kinase MRCK alpha (Homo sapiens), sequence (Q5VT25 whole entry): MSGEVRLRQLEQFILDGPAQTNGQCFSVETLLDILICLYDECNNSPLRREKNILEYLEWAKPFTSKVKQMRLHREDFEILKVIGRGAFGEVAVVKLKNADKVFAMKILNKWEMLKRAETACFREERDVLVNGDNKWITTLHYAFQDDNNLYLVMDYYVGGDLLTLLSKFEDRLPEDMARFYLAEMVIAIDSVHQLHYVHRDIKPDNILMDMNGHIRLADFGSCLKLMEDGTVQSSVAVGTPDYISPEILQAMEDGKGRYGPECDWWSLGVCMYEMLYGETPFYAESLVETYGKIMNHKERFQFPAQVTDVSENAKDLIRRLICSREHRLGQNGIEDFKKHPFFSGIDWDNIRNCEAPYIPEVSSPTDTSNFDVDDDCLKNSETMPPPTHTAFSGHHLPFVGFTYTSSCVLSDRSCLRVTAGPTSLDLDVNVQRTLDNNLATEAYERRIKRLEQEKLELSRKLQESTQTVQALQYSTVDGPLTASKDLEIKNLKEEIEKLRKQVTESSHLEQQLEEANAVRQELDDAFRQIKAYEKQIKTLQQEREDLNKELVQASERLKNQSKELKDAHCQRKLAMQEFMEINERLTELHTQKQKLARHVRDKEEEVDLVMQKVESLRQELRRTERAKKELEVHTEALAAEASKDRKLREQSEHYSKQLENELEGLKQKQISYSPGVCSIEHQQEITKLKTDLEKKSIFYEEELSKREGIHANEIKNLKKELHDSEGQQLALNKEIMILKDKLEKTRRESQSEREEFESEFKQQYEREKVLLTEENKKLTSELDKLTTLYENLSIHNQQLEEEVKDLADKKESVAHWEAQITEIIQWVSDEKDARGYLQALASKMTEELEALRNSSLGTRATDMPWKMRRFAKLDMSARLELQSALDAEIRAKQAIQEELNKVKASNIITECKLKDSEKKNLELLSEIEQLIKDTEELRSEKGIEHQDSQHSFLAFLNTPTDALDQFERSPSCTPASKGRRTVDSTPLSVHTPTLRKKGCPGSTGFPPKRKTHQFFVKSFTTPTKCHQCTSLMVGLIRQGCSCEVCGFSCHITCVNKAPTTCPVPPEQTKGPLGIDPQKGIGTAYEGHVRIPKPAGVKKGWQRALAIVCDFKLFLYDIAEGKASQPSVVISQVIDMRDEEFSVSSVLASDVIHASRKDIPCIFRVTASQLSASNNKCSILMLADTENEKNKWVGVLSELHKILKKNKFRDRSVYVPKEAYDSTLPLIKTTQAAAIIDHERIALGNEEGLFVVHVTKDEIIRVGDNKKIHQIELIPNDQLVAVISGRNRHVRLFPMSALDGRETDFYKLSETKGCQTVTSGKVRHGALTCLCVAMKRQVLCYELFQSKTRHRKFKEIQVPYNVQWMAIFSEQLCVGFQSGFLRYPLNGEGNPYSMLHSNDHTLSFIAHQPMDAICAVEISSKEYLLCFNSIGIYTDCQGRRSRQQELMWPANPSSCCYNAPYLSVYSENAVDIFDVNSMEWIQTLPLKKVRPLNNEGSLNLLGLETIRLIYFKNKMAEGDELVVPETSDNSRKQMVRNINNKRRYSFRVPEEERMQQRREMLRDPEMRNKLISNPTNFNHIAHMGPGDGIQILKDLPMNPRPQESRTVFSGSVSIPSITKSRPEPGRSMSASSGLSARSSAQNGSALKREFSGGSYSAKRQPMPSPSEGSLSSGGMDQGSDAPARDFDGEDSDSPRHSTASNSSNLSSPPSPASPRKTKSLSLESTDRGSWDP
Mitogen-activated protein kinase kinase kinase kinase 5 (Homo sapiens), sequence (Q9Y4K4 whole entry, looked up): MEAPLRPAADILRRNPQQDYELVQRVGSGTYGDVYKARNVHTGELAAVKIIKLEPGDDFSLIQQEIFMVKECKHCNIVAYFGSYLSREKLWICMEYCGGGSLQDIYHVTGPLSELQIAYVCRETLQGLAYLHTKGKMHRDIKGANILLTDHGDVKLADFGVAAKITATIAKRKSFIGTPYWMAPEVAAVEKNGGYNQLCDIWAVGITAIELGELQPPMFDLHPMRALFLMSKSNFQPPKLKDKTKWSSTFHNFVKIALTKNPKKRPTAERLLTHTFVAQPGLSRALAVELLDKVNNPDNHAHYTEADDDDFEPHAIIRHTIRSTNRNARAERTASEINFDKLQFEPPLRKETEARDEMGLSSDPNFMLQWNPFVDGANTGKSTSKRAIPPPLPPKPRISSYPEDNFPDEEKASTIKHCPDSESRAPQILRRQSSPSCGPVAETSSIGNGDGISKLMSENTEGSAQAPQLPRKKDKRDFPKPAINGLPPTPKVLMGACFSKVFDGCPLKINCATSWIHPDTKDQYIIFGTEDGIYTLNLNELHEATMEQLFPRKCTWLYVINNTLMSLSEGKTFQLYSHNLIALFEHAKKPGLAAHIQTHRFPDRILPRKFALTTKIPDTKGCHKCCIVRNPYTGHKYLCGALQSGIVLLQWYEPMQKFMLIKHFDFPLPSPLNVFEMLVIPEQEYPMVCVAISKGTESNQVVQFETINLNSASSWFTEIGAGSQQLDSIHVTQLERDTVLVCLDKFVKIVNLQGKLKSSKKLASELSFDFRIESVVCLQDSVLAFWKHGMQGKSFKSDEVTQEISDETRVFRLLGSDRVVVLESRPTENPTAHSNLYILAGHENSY

`C=CC(=O)Nc1cc(-n2c(=O)ccc3cnc4ccc(-c5ccc(NS(C)(=O)=O)cc5)cc4c32)ccc1C` was tested, and the % of control ([1]; at 1 µM) was 100% and the % of control ([1]; at 10 µM) was 64%.
`COc1cc(Nc2nc(C)cc(-c3cnn4nc(OC)ccc34)n2)cc(C(F)(F)F)c1` gave a % of control [2] of 96% and a % of control [3] of 92%.
In the case of `C=CC(=O)Nc1cccc(C(=O)Nc2ccc(Nc3cc(-c4[nH]c(SC)nc4C)ccn3)cc2)c1`, the % of control [4] is reported as 95%.
In the case of `CNC(=O)Nc1ccc(-c2nc(N3CC4CCC(C3)O4)c3cnn(C4CCC5(CC4)OCCO5)c3n2)cc1`, the % of inhibition [5] is reported as 19% and the % of control [6] is reported as 81%.
Work on `CC[C@@H]1[C@H](F)C(=O)N[C@@H]1COc1nccc2cc(C(N)=O)c(OC)cc12` [ZIMLOVISERTIB] yielded a % of inhibition [7] of -1.18%.
In the case of `CN(C)CCOc1ccc(-c2nc(-c3ccncc3)c(-c3ccc4c(c3)CC/C4=N\O)[nH]2)cc1`, the % of control [8] is reported as 100%.
